Values after ≈ are worked out from the molar mass of the structure shown. Counter-ions that a name gives are not always drawn.
Experiments:
Pseud. aeruginosa EP-067 = assay: Antibacterial activity (MIC), Pseud. aeruginosa EP-067; type: cell-based; details: Pseudomonas aeruginosa
Description: (§1) Tables 1 and 2 show the antibacterial activity (MIC, μg/mL) of the compounds of this invention.

Pseud. aeruginosa EP-071 = assay: Antibacterial activity (MIC), Pseud. aeruginosa EP-071; type: cell-based; details: Pseudomonas aeruginosa
Description: as §1

Kleb. pneumoniae EK-6 = assay: Antibacterial activity (MIC), Kleb. pneumoniae EK-6; type: cell-based; details: Klebsiella pneumoniae
Description: as §1

Pseud. aeruginosa EP-069 = assay: Antibacterial activity (MIC), Pseud. aeruginosa EP-069; type: cell-based; details: Pseudomonas aeruginosa
Description: as §1

Pseud. aeruginosa = details: in words; cited from earlier work
Kleb. pneumoniae = details: in words; cited from earlier work
[1] = Acute toxicity LD50 (mouse, oral); details: in vivo
Description: The acute toxicity values [LD50 (mouse, oral)] of the compounds of this invention are higher than 4 g/kg in the case of 7β-[D-2-(6,7-dihydroxy-4-oxo-4H-1-benzothiopyran-3-carboxamide)-2-(4- hydroxyphenyl)acetamide]-3-(1-carboxymethyl-5-tetrazolyl)thiomethyl-3-cephem-4-carboxylic acid and 7β-[D-2-(6,7-diacetoxy-1-ethyl-1,4-dihydro-4-oxoquinoline-3-carboxamide)-2-(4-hydroxyphenyl)acetamide]-3-(1-carboxymethyl-5-tetrazolyl)thiomethyl-3-cephem-4-carboxylic acid, as well as 7β-[D-2-(6,7-dihydroxy-2-oxo-2H-1-benzopyran-3-carboxamide)-2-(4-hydroxyphenyl)acetamide]-3-(1-carboxymethyl-5-tetrazolyl)thiomethyl-3-cephem-4-carboxylic acid and 7β-[D-2-(6,7-dihydroxy-2-oxo-2H-1-benzothiopyran-3-carboxamide)-2-(4- hydroxyphenyl)acetamide]-3-(1-carboxymethyl-5-tetrazolyl)thiomethyl-3-cephem-4-carboxylic acid.

CC(=O)Oc1cc2cc(C(=O)N[C@@H](C(=O)N[C@@H]3C(=O)N4[C@@H]3SC(C)(C)[C@@H]4C(=O)O)c3ccccc3)c(=O)sc2cc1OC(C)=O [Example 28, 6β-[D-2-(6,7-Diacetoxy-2-oxo-2H-1-benzothiopyran-3-carboxamide)-2-phenylacetamide]penicillanic acid]
MIC (Pseud. aeruginosa EP-067; EP067, Table 2): 1.56 µg/mL (≈ 2.39 µM)
MIC (Pseud. aeruginosa EP-071; EP071, Table 2): 0.1 µg/mL (≈ 0.153 µM)
MIC (Kleb. pneumoniae EK-6; EK6, Table 2): 0.1 µg/mL (≈ 0.153 µM)
MIC (Pseud. aeruginosa EP-069; EP069, Table 2): 3.13 µg/mL (≈ 4.79 µM)

CCn1cc(C(=O)N[C@@H](C(=O)N[C@@H]2C(=O)N3C(C(=O)O)=C(CSc4nnc(C)s4)CS[C@H]23)c2ccc(O)cc2)c(=O)c2cc(OC(C)=O)c(O)cc21 [Example 12, 7β-[D-2-(6-Acetoxy-7-hydroxy-1-ethyl-1,4-dihydro-4-oxoquinoline-3-carboxamide)-2-(4-hydroxyphenyl)acetamide]-3-[5-methyl-2-(1,3,4-thiadiazolyl)]thiomethyl-3-cephem-4-carboxylic acid sodium salt]
MIC (Pseud. aeruginosa EP-067; EP067, Table 1): 3.13 µg/mL
MIC (Pseud. aeruginosa EP-071; EP071, Table 1): 0.2 µg/mL
MIC (Kleb. pneumoniae EK-6; EK6, Table 1): 0.024 µg/mL
MIC (Pseud. aeruginosa EP-069; EP069, Table 1): 3.13 µg/mL

CCn1cc(C(=O)N[C@@H](C(=O)N[C@@H]2C(=O)N3C(C(=O)O)=C(CSc4nnc(C)s4)CS[C@H]23)c2ccc(O)cc2)c(=O)c2cc(O)c(O)cc21 [Example 6, 7β-[D-2-(6,7-Dihydroxy-1-ethyl-1,4-dihydro-4-oxoquinoline-3-carboxamide)-2-(4-hydroxyphenyl)acetamide]-3-[5-methyl-2-(1,3,4-thiadiazolyl)]thiomethyl-3-cephem-4-carboxylic acid]
MIC (Pseud. aeruginosa EP-067; EP067, Table 1): 3.13 µg/mL (≈ 4.32 µM)
MIC (Pseud. aeruginosa EP-071; EP071, Table 1): 0.2 µg/mL (≈ 0.276 µM)
MIC (Kleb. pneumoniae EK-6; EK6, Table 1): 0.05 µg/mL (≈ 0.069 µM)
MIC (Pseud. aeruginosa EP-069; EP069, Table 1): 3.13 µg/mL (≈ 4.32 µM)

CC1(C)S[C@@H]2[C@H](NC(=O)[C@H](NC(=O)c3cc4ccccc4oc3=O)c3ccccc3)C(=O)N2[C@H]1C(=O)O [D(-)-α-(coumarin-3-carboxamide)benzylpenicillin, reference compound]
MIC (Pseud. aeruginosa EP-067; EP067, Table 2): 12.5 µg/mL (≈ 24 µM)
MIC (Pseud. aeruginosa EP-071; EP071, Table 2): 1.56 µg/mL (≈ 2.99 µM)
antibacterial activity according to the known literature (Pseud. aeruginosa): highest in antibacterial activity
MIC (Kleb. pneumoniae EK-6; EK6, Table 2): 12.5 µg/mL (≈ 24 µM)
antibacterial activity according to the known literature (Kleb. pneumoniae): highest in antibacterial activity
MIC (Pseud. aeruginosa EP-069; EP069, Table 2): 12.5 µg/mL (≈ 24 µM)

CC1(C)S[C@@H]2[C@H](NC(=O)[C@H](NC(=O)c3cnc4cccnc4c3O)c3ccccc3)C(=O)N2[C@H]1C(=O)O [D(-)-α-(4-hydroxy-1,5-naphthyridine-3-carboxamide)benzylpenicillin, reference compound]
MIC (Pseud. aeruginosa EP-067; EP067, Table 1): 12.5 µg/mL (≈ 24 µM)
MIC (Pseud. aeruginosa EP-071; EP071, Table 1): 0.8 µg/mL (≈ 1.53 µM)
antibacterial activity according to the known literature (Pseud. aeruginosa): highest antibacterial activity
MIC (Kleb. pneumoniae EK-6; EK6, Table 1): 3.13 µg/mL (≈ 6 µM)
MIC (Pseud. aeruginosa EP-069; EP069, Table 1): 12.5 µg/mL (≈ 24 µM)

CC(=O)Oc1cc2cc(C(=O)N[C@@H](C(=O)N[C@@H]3C(=O)N4[C@@H]3SC(C)(C)[C@@H]4C(=O)O)c3ccccc3)c(=O)oc2cc1OC(C)=O [Example 14, 6β-[D-2-(6,7-Diacetoxy-2-oxo-2H-1-benzopyran-3-carboxamide)-2-phenylacetamide]penicillanic acid]
MIC (Pseud. aeruginosa EP-067; EP067, Table 2): 1.56 µg/mL (≈ 2.45 µM)
MIC (Pseud. aeruginosa EP-071; EP071, Table 2): 0.2 µg/mL (≈ 0.314 µM)
MIC (Kleb. pneumoniae EK-6; EK6, Table 2): 0.2 µg/mL (≈ 0.314 µM)
MIC (Pseud. aeruginosa EP-069; EP069, Table 2): 1.56 µg/mL (≈ 2.45 µM)

O=C(O)Cn1nnnc1SCC1=C(C(=O)O)N2C(=O)[C@@H](NC(=O)[C@H](NC(=O)c3cc4cc(O)c(O)cc4oc3=O)c3ccc(O)cc3)[C@H]2SC1 [Example 21, 7β-[D-2-(6,7-Dihydroxy-2-oxo-2H-1-benzopyran-3-carboxamide)-2-(4-hydroxyphenyl)acetamide]-3-(1-carboxymethyl-5-tetrazolyl)thiomethyl-3-cephem-4-carboxylic acid]
LD50 [1]: > 4000 mg/kg

CCn1cc(C(=O)N[C@@H](C(=O)N[C@@H]2C(=O)N3C(C(=O)O)=C(CSc4nnnn4CC(=O)O)CS[C@H]23)c2ccc(O)cc2)c(=O)c2cc(OC(C)=O)c(OC(C)=O)cc21 [Example 5, 7β-[D-2-(6,7-Diacetoxy-1-ethyl-1,4-dihydro-4-oxoquinoline-3-carboxamide)-2-(4-hydroxyphenyl)acetamide]-3-(1-carboxymethyl-5-tetrazolyl)thiomethyl-3-cephem-4-carboxylic acid]
MIC (Pseud. aeruginosa EP-067; EP067, Table 1): 3.13 µg/mL (≈ 3.74 µM)
LD50 [1]: > 4000 mg/kg
MIC (Pseud. aeruginosa EP-071; EP071, Table 1): 0.2 µg/mL (≈ 0.239 µM)
MIC (Kleb. pneumoniae EK-6; EK6, Table 1): 0.024 µg/mL (≈ 0.0287 µM)
MIC (Pseud. aeruginosa EP-069; EP069, Table 1): 3.13 µg/mL (≈ 3.74 µM)

CO[C@@]1(NC(=O)[C@H](NC(=O)c2csc3cc(OC(C)=O)c(OC(C)=O)cc3c2=O)c2ccc(O)cc2)C(=O)N2C(C(=O)O)=C(COC(C)=O)CS[C@@H]21 [Example 11, 7β-[D-2-(6,7-Diacetoxy-4-oxo-4H-1-benzothiopyran-3-carboxamide)-2-(4-hydroxyphenyl)acetamide]-7α-methoxy-3-acetoxymethyl-3-cephem-4-carboxylic acid]
MIC (Pseud. aeruginosa EP-067; EP067, Table 1): 3.13 µg/mL (≈ 4.14 µM)
MIC (Pseud. aeruginosa EP-071; EP071, Table 1): 0.2 µg/mL (≈ 0.265 µM)
MIC (Kleb. pneumoniae EK-6; EK6, Table 1): 0.024 µg/mL (≈ 0.0318 µM)
MIC (Pseud. aeruginosa EP-069; EP069, Table 1): 3.13 µg/mL (≈ 4.14 µM)

CC(=O)OCC1=C(C(=O)O)N2C(=O)[C@@H](NC(=O)[C@H](NC(=O)c3cc4cc(OC(C)=O)c(OC(C)=O)cc4n(C)c3=O)c3ccc(O)cc3)[C@H]2SC1 [Example 35, 7β-[D-2-(6,7-Diacetoxy-1-methyl-1,2-dihydro-2-oxoquinoline-3-carboxamide)-2-(4-hydroxyphenyl)acetamide]-3-acetoxymethyl-3-cephem-4-carboxylic acid]
MIC (Pseud. aeruginosa EP-067; EP067, Table 2): 3.13 µg/mL (≈ 4.33 µM)
MIC (Pseud. aeruginosa EP-071; EP071, Table 2): 0.2 µg/mL (≈ 0.277 µM)
MIC (Kleb. pneumoniae EK-6; EK6, Table 2): 0.8 µg/mL (≈ 1.11 µM)
MIC (Pseud. aeruginosa EP-069; EP069, Table 2): 1.56 µg/mL (≈ 2.16 µM)

Cc1nnc(SCC2=C(C(=O)O)N3C(=O)[C@@H](NC(=O)[C@H](NC(=O)c4cc5cc(O)c(O)cc5[nH]c4=O)c4ccc(O)cc4)[C@H]3SC2)s1 [Example 34, 7β-[D-2-(6,7-Dihydroxy-1,2-dihydro-2-oxoquinoline-3-carboxamide)-2-(4-hydroxyphenyl)acetamide]-3-[5-methyl-2-(1,3,4-thiadiazolyl)]thiomethyl-3-cephem-4-carboxylic acid]
MIC (Pseud. aeruginosa EP-067; EP067, Table 2): 3.13 µg/mL (≈ 4.49 µM)
MIC (Pseud. aeruginosa EP-071; EP071, Table 2): 0.4 µg/mL (≈ 0.574 µM)
MIC (Kleb. pneumoniae EK-6; EK6, Table 2): 0.4 µg/mL (≈ 0.574 µM)
MIC (Pseud. aeruginosa EP-069; EP069, Table 2): 3.13 µg/mL (≈ 4.49 µM)

Cn1nnnc1SCC1=C(C(=O)O)N2C(=O)[C@@H](NC(=O)[C@H](NC(=O)c3cc4cc(O)c(O)cc4oc3=O)c3ccc(O)cc3)[C@H]2SC1 [Example 20, 7β-[D-2-(6,7-Dihydroxy-2-oxo-2H-1-benzopyran-3-carboxamide)-2-(4-hydroxyphenyl)acetamide]-3-(1-methyl-5-tetrazolyl)thiomethyl-3-cephem-4-carboxylic acid]
MIC (Pseud. aeruginosa EP-067; EP067, Table 2): 0.8 µg/mL (≈ 1.17 µM)
MIC (Pseud. aeruginosa EP-071; EP071, Table 2): 0.2 µg/mL (≈ 0.293 µM)
MIC (Kleb. pneumoniae EK-6; EK6, Table 2): 0.2 µg/mL (≈ 0.293 µM)
MIC (Pseud. aeruginosa EP-069; EP069, Table 2): 0.8 µg/mL (≈ 1.17 µM)

O=C(O)Cn1nnnc1SCC1=C(C(=O)O)N2C(=O)[C@@H](NC(=O)[C@H](NC(=O)c3cc4ccc(O)c(O)c4oc3=O)c3ccc(O)cc3)[C@H]2SC1 [Example 27, 7β-[D-(7,8-Dihydroxy-2-oxo-2H-1-benzopyran-3-carboxamide)-2-(4-hydroxyphenyl)acetamide]-3-(1-carboxymethyl-5-tetrazolyl)thiomethyl-3-cephem-4-carboxylic acid]
MIC (Pseud. aeruginosa EP-067; EP067, Table 2): 1.56 µg/mL (≈ 2.15 µM)
MIC (Pseud. aeruginosa EP-071; EP071, Table 2): 0.1 µg/mL (≈ 0.138 µM)
MIC (Kleb. pneumoniae EK-6; EK6, Table 2): ≤ 0.012 µg/mL
MIC (Pseud. aeruginosa EP-069; EP069, Table 2): 1.56 µg/mL (≈ 2.15 µM)

CC(=O)OCC1=C(C(=O)O)N2C(=O)[C@@H](NC(=O)[C@H](NC(=O)c3cc4ccc(O)c(O)c4oc3=O)c3ccc(O)cc3)[C@H]2SC1 [Example 25, 7β-[D-2-(7,8-Dihydroxy-2-oxo-2H-1-benzopyran-3-carboxamide)-2-(4-hydroxyphenyl)acetamide]-3-acetoxymethyl-3-cephem-4-carboxylic acid]
MIC (Pseud. aeruginosa EP-067; EP067, Table 2): 0.8 µg/mL (≈ 1.28 µM)
MIC (Pseud. aeruginosa EP-071; EP071, Table 2): 0.1 µg/mL (≈ 0.16 µM)
MIC (Kleb. pneumoniae EK-6; EK6, Table 2): 0.1 µg/mL (≈ 0.16 µM)
MIC (Pseud. aeruginosa EP-069; EP069, Table 2): 1.56 µg/mL (≈ 2.49 µM)

O=C(O)Cn1nnnc1SCC1=C(C(=O)O)N2C(=O)[C@@H](NC(=O)[C@H](NC(=O)c3cc4cc(O)c(O)cc4sc3=O)c3ccc(O)cc3)[C@H]2SC1 [Example 30]
LD50 [1]: > 4000 mg/kg

CCn1cc(C(=O)N[C@@H](C(=O)N[C@@H]2C(=O)N3[C@@H]2SC(C)(C)[C@@H]3C(=O)O)c2ccccc2)c(=O)c2cc(OC(C)=O)c(OC(C)=O)cc21 [Example 2, 6β-[D-2-(6,7-Diacetoxy-1-ethyl-1,4-dihydro-4-oxoquinoline-3-carboxamide)-2-phenylacetamide]penicillanic acid]
MIC (Pseud. aeruginosa EP-067; EP067, Table 1): 1.56 µg/mL (≈ 2.35 µM)
MIC (Pseud. aeruginosa EP-071; EP071, Table 1): 0.1 µg/mL (≈ 0.15 µM)
MIC (Kleb. pneumoniae EK-6; EK6, Table 1): 0.2 µg/mL (≈ 0.301 µM)
MIC (Pseud. aeruginosa EP-069; EP069, Table 1): 3.13 µg/mL (≈ 4.71 µM)

O=C(O)Cn1nnnc1SCC1=C(C(=O)O)N2C(=O)[C@@H](NC(=O)[C@H](NC(=O)c3csc4cc(O)c(O)cc4c3=O)c3ccc(O)cc3)[C@H]2SC1 [Example 10, 7β-[D-2-(6,7-Dihydroxy-4-oxo-4H-1-benzothiopyran-3-carboxamide)-2-(4-hydroxyphenyl)acetamide]-3-(1-carboxymethyl-5-tetrazolyl)thiomethyl-3-cephem-4-carboxylic acid]
MIC (Pseud. aeruginosa EP-067; EP067, Table 1): 3.13 µg/mL (≈ 4.22 µM)
LD50 [1]: > 4000 mg/kg
MIC (Pseud. aeruginosa EP-071; EP071, Table 1): 0.2 µg/mL (≈ 0.27 µM)
MIC (Kleb. pneumoniae EK-6; EK6, Table 1): ≤ 0.012 µg/mL
MIC (Pseud. aeruginosa EP-069; EP069, Table 1): 3.13 µg/mL (≈ 4.22 µM)

Reference: patent publication US4468394A, “Cephalosporin compounds” (Eisai Co., Ltd., priority 1981, dated 1984)
